# Data published in a compilation of properties of binary mixtures (doi:10.1039/b819795b).
# Assay: xn = mol fraction of the nth substance listed
# Details: 101 kPa
smiles,measurement,setting,value
CCCCCCCC[n+]1ccn(C)c1.F[P-](F)(F)(F)(F)F + CC(C)O,speed of sound,"293.15 K, x1 = 0.0004",1156 m/s
same,speed of sound,"293.15 K, x1 = 0.0009",1157 m/s
same,speed of sound,"293.15 K, x1 = 0.0014",1157 m/s
same,speed of sound,"293.15 K, x1 = 0.0024",1158 m/s
same,speed of sound,"293.15 K, x1 = 0.003",1158 m/s
same,speed of sound,"293.15 K, x2 = 0",1424 m/s
same,speed of sound,"293.15 K, x2 = 0.0965",1412 m/s
same,speed of sound,"293.15 K, x2 = 0.2012",1395 m/s
same,speed of sound,"293.15 K, x2 = 0.304",1379 m/s
same,speed of sound,"293.15 K, x2 = 0.4009",1364 m/s
same,speed of sound,"293.15 K, x2 = 0.4943",1340 m/s
same,speed of sound,"293.15 K, x2 = 0.5989",1310 m/s
same,speed of sound,"298.15 K, x1 = 0.0004",1140 m/s
same,speed of sound,"298.15 K, x1 = 0.0009",1140 m/s
same,speed of sound,"298.15 K, x1 = 0.0024",1141 m/s
same,speed of sound,"298.15 K, x1 = 0.003",1141 m/s
same,speed of sound,"298.15 K, x1 = 0.0053",1142 m/s
same,speed of sound,"298.15 K, x2 = 0",1408 m/s
same,speed of sound,"298.15 K, x2 = 0.0069",1407 m/s
same,speed of sound,"298.15 K, x2 = 0.0965",1397 m/s
same,speed of sound,"298.15 K, x2 = 0.2012",1382 m/s
same,speed of sound,"298.15 K, x2 = 0.304",1366 m/s
same,speed of sound,"298.15 K, x2 = 0.4009",1351 m/s
same,speed of sound,"298.15 K, x2 = 0.5989",1296 m/s
same,speed of sound,"298.15 K, x2 = 0.6487",1279 m/s
same,speed of sound,"298.15 K, x2 = 0.6964",1261 m/s
same,speed of sound,"303.15 K, x1 = 0.0004",1121 m/s
same,speed of sound,"303.15 K, x1 = 0.0009",1122 m/s
same,speed of sound,"303.15 K, x1 = 0.0014",1122 m/s
same,speed of sound,"303.15 K, x1 = 0.0024",1123 m/s
same,speed of sound,"303.15 K, x1 = 0.003",1123 m/s
same,speed of sound,"303.15 K, x1 = 0.0053",1125 m/s
same,speed of sound,"303.15 K, x1 = 0.0098",1128 m/s
same,speed of sound,"303.15 K, x2 = 0",1393 m/s
same,speed of sound,"303.15 K, x2 = 0.0069",1393 m/s
same,speed of sound,"303.15 K, x2 = 0.0965",1384 m/s
same,speed of sound,"303.15 K, x2 = 0.2012",1368 m/s
same,speed of sound,"303.15 K, x2 = 0.4009",1339 m/s
same,speed of sound,"303.15 K, x2 = 0.6487",1267 m/s
same,speed of sound,"303.15 K, x2 = 0.6964",1252 m/s
same,speed of sound,"303.15 K, x2 = 0.7469",1235 m/s
CCCCCCCC[n+]1ccn(C)c1.F[P-](F)(F)(F)(F)F + CCCCCC,speed of sound,"293.15 K, x2 = 0",1424 m/s
same,speed of sound,"293.15 K, x2 = 0.0468",1408 m/s
same,speed of sound,"293.15 K, x2 = 0.0712",1401 m/s
same,speed of sound,"293.15 K, x2 = 0.0893",1394 m/s
same,speed of sound,"298.15 K, x2 = 0",1408 m/s
same,speed of sound,"298.15 K, x2 = 0.0468",1393 m/s
same,speed of sound,"298.15 K, x2 = 0.0712",1385 m/s
same,speed of sound,"298.15 K, x2 = 0.1268",1364 m/s
same,speed of sound,"303.15 K, x2 = 0",1393 m/s
same,speed of sound,"303.15 K, x2 = 0.0468",1378 m/s
same,speed of sound,"303.15 K, x2 = 0.0893",1364 m/s
same,speed of sound,"303.15 K, x2 = 0.1268",1349 m/s
CCCCCCCC[n+]1ccn(C)c1.F[P-](F)(F)(F)(F)F + CCCCCCC,speed of sound,"293.15 K, x2 = 0",1424 m/s
same,speed of sound,"293.15 K, x2 = 0.0074",1421 m/s
same,speed of sound,"293.15 K, x2 = 0.0516",1406 m/s
same,speed of sound,"298.15 K, x2 = 0",1408 m/s
same,speed of sound,"298.15 K, x2 = 0.0516",1391 m/s
same,speed of sound,"298.15 K, x2 = 0.0803",1381 m/s
same,speed of sound,"303.15 K, x2 = 0.0074",1391 m/s
same,speed of sound,"303.15 K, x2 = 0.0803",1366 m/s
CC(C)O + CCCCCCCC[n+]1ccn(C)c1.F[P-](F)(F)(F)(F)F,speed of sound,"293.15 K, x1 = 1",1156 m/s
CCCCCC + CCCCCCCC[n+]1ccn(C)c1.F[P-](F)(F)(F)(F)F,speed of sound,"293.15 K, x1 = 1",1100 m/s
same,speed of sound,"298.15 K, x1 = 1",1078 m/s
CCCCCCC + CCCCCCCC[n+]1ccn(C)c1.F[P-](F)(F)(F)(F)F,speed of sound,"293.15 K, x1 = 1",1153 m/s
same,speed of sound,"298.15 K, x1 = 1",1131 m/s
same,speed of sound,"303.15 K, x1 = 1",1110 m/s
